We go through three molecules from patent publication US10774049B2, “PU.1 inhibitors” (Albert Einstein College of Medicine, priority 2016, dated 2020).

SMILES strings stand for the structures. Structures can show the parent of a compound that is named as a salt.

The test system of data set [1] is PU.1 occupancy on E2f1, Junb and Csf1r promoters. The data set is described as follows: Chromatin immunoprecipitation of PU.1 on target promoters in AML cells. Format: cell-based. To be noted: ChIP. The method, then: FIG. 3A-3G. Novel inhibitors show on-target PU.1 inhibitory activity. (A) Quantitative RT-PCR analysis of Csf1r, Junb, Sfpi1, E2f1 expression after 72 h (n=6) and, for Csf1r, after 1 h (n=3), 4 h (n=7), 8 h (n=3) and 24 h (n=3) of treatment with the small molecules in URE−/− cells, expression is normalized to GAPDH expression. Data represent means±SD of technical triplicate from one representative experiment; fold change compared to Vehicle is shown. (B) Chromatin immunoprecipitation assay showing PU.1 occupancy on E2f1, Junb, Csf1r promoters after treatment in Umsh cell line (n=5). 10·10^6 cells were collected for each condition after 8 h treatment with a double dose of the small molecules (50 uM for DB1976, 1.4 uM for DB2115 and 660 nM for DB2313) or Vehicle; and processed for ChIP using PU.1 monoclonal antibody. Myogenin was used as a negative control, not regulated by PU.1. Data represent means±SD of technical triplicate from one representative experiment. (C) Cell viability after PU.1 rescue in MOLM13 cells. MOLM13 were transduced with a lentiviral construct expressing either PU.1-GFP (PU.1, black bar) or GFP as a control (empty, white bar), sorted on GFP and plated with DB1976 (n=7), DB2115 (n=8), DB2313 (n=6) or Vehicle. Cell count was performed after 4 days. Data represent means±SD of technical triplicate from one representative experiment; fold change compared to Vehicle is shown. (D-G) Transcriptome analysis of URE−/− cells after 24 h of treatment with DB2313 versus vehicle (n=3). Differentially expressed genes were determined with a fold change at 1.2 and a P value <0.1. […] Deregulated gens in PUER cells were analyzed with a FC at 1.5 and P-value <0.05. […] P-value was calculated using the hypergeometric test. […]
(§1) To assess on-target activity of our inhibitors in AML cells, we measured transcript levels of well-known PU.1 targets in PU.1 URE^−/− AML cells. […] As Csf1r is one of the most sensitive PU.1 targets in myeloid cells, we assessed its expression at different time points (1 h, 4 h, 8 h and 24 h) after drug treatment. […]

The next data set deals with primary human AML cells. The data set is described as follows: Primary human AML mononuclear cells in semi-solid media (viable cells, colonies, apoptosis). It is filed as cell-based. The settings on record: for mean decrease in number of viable cells / mean decrease of clonogenic capacity: in comparison to vehicle; for average increase of apoptotic cell fraction: vs vehicle. The method, then:
FIG. 4A-4G. PU.1 inhibition decreases cell growth and increases apoptosis of primary human AML cells. (A-C) Transduced GFP+ human primary mononuclear AML cells were plated in semi-solid media (150 000 cells per ml of methyl); colony number, number of viable cells and apoptotic cells were assessed after 14 days of culture. (A, B) Clonogenic capacities and number of viable cells after transduction with shPU.1_1 and shPU.1_2 (n=7). (C) Apoptotic cells (Annexin-V+Dapi−) fraction after transduction with shPU.1_1 and shPU.1_2 (n=7). (D-F) Human primary mononuclear AML cells were plated in semi-solid media (150 000 cells per ml of methyl) containing the PU.1 inhibitors DB1976, DB2115 and DB2313; colony number, number of viable cells and apoptotic cells were assessed after 14 days of culture. (D-E) Clonogenic capacities (n=9) and number of viable cells (n=8) after treatment. (F) Apoptotic cells (Annexin-V+Dapi−) fraction after treatment (n=8). […] (A-G) Data represent means±SD, each AML sample is represented by an individual dot. Fold change compared to shCtrl or Vehicle is shown.
To determine whether PU.1 inhibition has an effect on primary cells from AML patients, we seeded mononuclear cells from AML patients in semi-solid media for 2 weeks and assessed the number of colonies, the number of viable cells and the proportion of apoptotic cells. […] At the same time, the proportion of apoptotic cells increased on average of 2-fold upon knockdown of PU.1 in primary human AML cells with the more efficient shRNA (shPU.1_2) (FIG. 1F).
We also explored the effect of the small molecule PU.1 inhibitors on primary human AML cells, and treated 11 samples from AML patients with PU.1 inhibitors. PU.1 inhibitors led to significant decreases in the number of viable cells (mean decrease: 81% for DB1976, 68% for DB2115, 72% for DB2313) (FIG. 3E), and clonogenic capacity (mean decrease of 36% for DB1976, 45% for DB2115, 60% for DB23313), in comparison to vehicle (FIG. 3F). The apoptotic cell fraction increased on average by 1.5-fold with DB1976, 2.2-fold with DB2115 and 2.5-fold with DB2313 (FIG. 3G).

The subject of data set [2] is PU.1 targets Csf1r, Junb, PU.1, E2f1. Put plainly: Quantitative RT-PCR of PU.1 target transcripts in PU.1 URE−/− AML cells. Format: cell-based, murine. How it is done:
FIG. 3A-3G. Novel inhibitors show on-target PU.1 inhibitory activity. (A) Quantitative RT-PCR analysis of Csf1r, Junb, Sfpi1, E2f1 expression after 72 h (n=6) and, for Csf1r, after 1 h (n=3), 4 h (n=7), 8 h (n=3) and 24 h (n=3) of treatment with the small molecules in URE−/− cells, expression is normalized to GAPDH expression. Data represent means±SD of technical triplicate from one representative experiment; fold change compared to Vehicle is shown. (B) Chromatin immunoprecipitation assay showing PU.1 occupancy on E2f1, Junb, Csf1r promoters after treatment in Umsh cell line (n=5). 10·10^6 cells were collected for each condition after 8 h treatment with a double dose of the small molecules (50 uM for DB1976, 1.4 uM for DB2115 and 660 nM for DB2313) or Vehicle; and processed for ChIP using PU.1 monoclonal antibody. Myogenin was used as a negative control, not regulated by PU.1. Data represent means±SD of technical triplicate from one representative experiment. (C) Cell viability after PU.1 rescue in MOLM13 cells. MOLM13 were transduced with a lentiviral construct expressing either PU.1-GFP (PU.1, black bar) or GFP as a control (empty, white bar), sorted on GFP and plated with DB1976 (n=7), DB2115 (n=8), DB2313 (n=6) or Vehicle. Cell count was performed after 4 days. Data represent means±SD of technical triplicate from one representative experiment; fold change compared to Vehicle is shown. (D-G) Transcriptome analysis of URE−/− cells after 24 h of treatment with DB2313 versus vehicle (n=3). Differentially expressed genes were determined with a fold change at 1.2 and a P value <0.1. (D) Enrichment in genes directly regulated by PU.1 or in genes regulated by the other ETS transcription factors Ets1, Gabpa, Spi-B, Fli-1, using Ingenuity Knowledge Base. The red dotted line represents the significance threshold (−log (P value)>1.3). (E,F) Comparison analysis of deregulated genes in URE−/− cells after DB2313 treatment and in PUER cells after PU.1 induction (GSE13125). Deregulated gens in PUER cells were analyzed with a FC at 1.5 and P-value <0.05. (E) Significant overlap between the 2 datasets, with 484 genes commonly deregulated. P-value was calculated using the hypergeometric test. (F) Comparative analysis of deregulated canonical pathways between the 2 datasets (z-score >2 for PUER dataset). Colored squares indicate activation z-score. (G) Enrichment of PU.1 binding at promoters of all, up- and down-deregulated genes after DB2313 treatment. […]
as §1

In the case of `N=C(N)c1ccc2nc(-c3ccc(-c4nc5ccc(C(=N)N)cc5[nH]4)[se]3)[nH]c2c1` [DB1976], the “PU.1 occupancy on E2f1, Junb and Csf1r promoters” value (“PU.1 occupancy on E2f1” below) in data set [1] was “decreased”. In the data set with primary human AML cells, the “mean decrease in number of viable cells” value is 81%, the “mean decrease of clonogenic capacity” value turned out to be 36% and the “average increase of apoptotic cell fraction” value came out at 1.5 fold.

For the molecule `N=C(N)c1ccc2nc(-c3ccc(OCCCCOc4ccc(-c5nc6ccc(C(=N)N)cc6[nH]5)cc4)cc3)[nH]c2c1` [DB2115], the “PU.1 occupancy on E2f1” value in data set [1] is given as “decreased”. In the data set on primary human AML cells, the “mean decrease in number of viable cells” value amounted to 68%, the “mean decrease of clonogenic capacity” value is 45% and the “average increase of apoptotic cell fraction” value was 2.2 fold. Besides, in data set [2], the “Csf1r, Junb, and PU.1 transcript expression” value was “decrease”; the E2f1 expression entry is recorded as “increase”.

Consider `CC(C)NC(=N)c1ccc2nc(-c3ccc(OCc4cccc(COc5ccc(-c6nc7ccc(C(=N)NC(C)C)cc7[nH]6)cc5)c4F)cc3)[nH]c2c1` [DB2313, 3-Bis{4[4(5)-N-isopropylamidinobenzimidazolyl]phenoxymethyl]}-2-fluorobenzene tetrahydrochloride], for which the “PU.1 occupancy on E2f1” value in data set [1] was “decreased”. In the data set on primary human AML cells, the “mean decrease in number of viable cells” value turned out to be 72%, the “mean decrease of clonogenic capacity” value is 60% and the “average increase of apoptotic cell fraction” value was determined as 2.5 fold. In data set [2], the “Csf1r, Junb, and PU.1 transcript expression” value is given as “decrease”; the E2f1 expression result was “increase”.
